# How the values were obtained:
# [1] = molecular target: T1, Human recombinant PKCβ1 (Homo sapiens, UniProt P05771); assay: Protein Kinase Cβ1 Assay; assay type: biochemical; settings: single compounds
# T1 construct: purchased Oxford Biomedical Research
# Method: (§1) The compounds of the invention are tested for their activity on different PKC isoforms according to the following method. Assay is performed in a white with clear bottom 384-well microtiterplate with non-binding surface. The reaction mixture (25 μl) contains 1.5 μM of a tridecapeptide acceptor substrate that mimics the pseudo substrate sequence of PKC a with the Ala→Ser replacement, 10 μM ^33P-ATP, 10 mM Mg(NO3)2, 0.2 mM CaCl2, PKC at a protein concentration varying from 25 to 400 ng/ml (depending on the isotype used), lipid vesicles (containing 30 mol % phosphatidylserine, 5 mol % DAG and 65 mol % phosphatidylcholine) at a final lipid concentration of 0.5 mM, in 20 mM Tris-HCl buffer pH 7.4 +0.1% BSA. Incubation is performed for 60 min at room temperature. Reaction is stopped by adding 50 μl of stop mix (100 mM EDTA, 200 μM ATP, 0.1% Triton X-100, 0.375 mg/well streptavidin-coated SPA beads in phosphate buffered saline w/o Ca, Mg. After 10 min incubation at room temperature, the suspension is spun down for 10 min at 300 g. Incorporated radioactivity is measured in a Trilux counter for 1 min. IC50 measurement is performed on a routine basis by incubating a serial dilution of inhibitor at concentrations ranging between […]. IC50 values are calculated from the graph by curve fitting with XL Fit® software. […]
# [2] = molecular target: T2, Human recombinant PKCα (Homo sapiens, UniProt P17252); assay: Protein Kinase Cα Assay; assay type: biochemical; settings: single compounds
# T2 construct: purchased Oxford Biomedical Research
# Method: as §1
# T1 sequence (P05771 whole entry): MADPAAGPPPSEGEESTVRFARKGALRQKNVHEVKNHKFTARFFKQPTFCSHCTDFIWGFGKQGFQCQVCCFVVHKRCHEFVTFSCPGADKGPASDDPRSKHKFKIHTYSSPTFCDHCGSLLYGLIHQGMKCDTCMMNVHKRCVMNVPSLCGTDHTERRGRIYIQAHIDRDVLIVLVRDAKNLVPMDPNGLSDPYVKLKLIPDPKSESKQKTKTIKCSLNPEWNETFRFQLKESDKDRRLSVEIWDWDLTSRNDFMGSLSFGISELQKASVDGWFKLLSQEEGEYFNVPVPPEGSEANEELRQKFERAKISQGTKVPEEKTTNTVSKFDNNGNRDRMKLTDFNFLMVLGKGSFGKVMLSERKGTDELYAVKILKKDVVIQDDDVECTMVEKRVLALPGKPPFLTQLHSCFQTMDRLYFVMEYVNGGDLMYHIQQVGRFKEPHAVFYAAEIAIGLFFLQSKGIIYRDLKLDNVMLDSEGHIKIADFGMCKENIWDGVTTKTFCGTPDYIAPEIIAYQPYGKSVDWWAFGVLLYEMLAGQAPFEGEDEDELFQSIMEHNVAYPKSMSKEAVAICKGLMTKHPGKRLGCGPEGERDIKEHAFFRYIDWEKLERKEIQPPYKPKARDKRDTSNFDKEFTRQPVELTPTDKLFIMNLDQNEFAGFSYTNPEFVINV
IC50 [1],IC50 [2],SMILES
18200 pM,–,"Cc1cc2ccc(CN(C)C)cn2c1C1=C(c2c[nH]c3ccccc23)C(=O)NC1=O [Example 24, 3-(6-Dimethylaminomethyl-2-methyl-indolizin-3-yl)-4-(1H-indol-3-yl)-pyrrole-2,5-dione]"
–,300 pM,CNCc1ccc2[nH]c(C)c(C3=C(c4cn(C)c5ccccc45)C(=O)NC3=O)c2c1 [Example 51]
900 pM,–,Cc1ccc2c(C3=C(c4c(C(F)(F)F)[nH]c5ccc(CN(C)C)cc45)C(=O)NC3=O)c[nH]c2c1 [Example 47]

# From patent US8742132B2, “Indolylmaleimide derivatives processes for their production and pharmaceutical compositions” (Novartis AG, priority 2006, dated 2014)
